Laboratory results reported in patent EP0422215B1, “ANTIBACTERIAL AND AN[…]” (THE ROCKEFELLER UNIVERSITY, priority 1989, dated 1990).

How the values were obtained:
Type in all cases: cell-based
B. subtilis Bsll = conditions: overnight incubation at 30°C; for LETHAL CONCENTRATION Bsll + ME: B. subtilis, plates prepared with medium E; for LETHAL CONCENTRATION Bsll: Bsll = B. subtilis, thin agarose plates
Protocol: (§1) The products of the invention were tested for activity against a variety of test organisms selected to represent a number of different types of pathogens some of them known to be particularly virulent by the inhibition zone assay of Hoffmann et al. (1981) Insect Biochem. 11 537-548. Thin agar or agarose plates (8.5 cm diameter) were prepared with 6 ml of rich medium containing 100 µg/ml of streptomycin and 2 x 10^5 viable cells of a test organism resistant to streptomycin. Wells of […] were punched in the plates and 3 µl of serially diluted samples were placed in the wells. The diameters of the zones of inhibition around the wells were measured after overnight incubation at 30° or 37°C. For each peptide the squares of the zone diameters were plotted against the logarithm of the concentration, and from the slopes and intercepts the lethal concentrations were calculated as described by Hultmark (1983) EMBO J. 2, 571-76 or Hultmark et al. (1982) Eur. J. Biochem. 127 207-217.
(§2) Novel peptides CA(1-8)M(1-18), CA(1-9)M(1-17), CB(1-13)M(1-13), CA(1-17)M(1-9), CA(1-18)M(1-8), M(1-13)CA(1-22) and M(1-13)CA(1-13) were prepared as described above (see Examples 1-6). These novel peptides and CA, CB, and M were tested for activity against a variety of organisms selected to represent a number of different types of pathogens, some of them known to be particularly virulent, by the inhibition zone assay of Hoffmann et al. (1981), Insect Biochem. 11 537-48. As in Examples 1-6, thin agarose plates were prepared with the respective organisms. The diameters of the zones of inhibition were measured after overnight incubation at 30°C. The lethal concentrations were determined as described above (see Examples 1-6; Hultmark et al. articles cited thereat).

E. coli D21 = conditions: thin agarose plates, overnight incubation at 30°C
Protocol: as §1, §2

P. aeruginosa OT97 = conditions: thin agarose plates, overnight incubation at 30°C
Protocol: as §1, §2

S. aureus Cowan I = conditions: thin agarose plates, 30°C, * indicates flat concentration dependence
Protocol: as §1, §2

S. pyogenes = conditions: thin agarose plates, overnight incubation at 30°C
Protocol: as §1, §2

Sheep Red Cells = test: lysis of sheep red blood cells (lysis assay or inhibition zone plate assay with SRC); conditions: SRC = Sheep Red Cells; ? indicates turbid zone (melittin gives clear zone)
Protocol: These values were obtained by either the lysis assay normally used for melittin or by an adaptation of the antibacterial inhibition zone assay of the above-cited Hultmark et al. articles to plates with sheep red cells (SRC). With respect to the latter, sterile agarose plates contained 6 ml of medium with 1% agarose, 0.9% NaCl and 10% SRC suspended in Alsevers solution. A dilution series of peptide was applied in 3mm wells each loaded with 3 µl of the respective samples. The plates were incubated at 30°C for 24 h, the zones were recorded and LC values calculated as described in the Hultmark et al. articles. Clear zones were recorded after a few hours of incubation and the use of such data gave an LC value of the same order as readings after 24 h. This plate assay is faster and more convenient than the lysis assay normally used for melittin.

[1] = test system: Plasmodium falciparum strain F32 (Tanzania); test: inhibition of reinvasion of human red cells by blood stream forms of the malaria parasite; conditions: result in words, read from Figure 1
Protocol: The blood stream forms of the malaria parasite Plasmodium falciparum, primarily late trophozoites and early schizonts, were assayed by recording the inhibition of the reinvasion of human red cells by the method of Wahlin, B., et al, (1984) Proc. Natl. Acad. Sci. USA 81, 7912-16. Quadruplicate microcultures of strain F32 (Tanzania) were incubated for 20 hrs at 37°C in a complete tissue culture medium, with or without different concentrations of the peptides to be assayed. After acridine orange staining, the percentage of newly infected red cells was scored in a fluorescence microscope. For each culture 40,000 red cells were analysed for parasitic infection. Duplicate assays were run for CA(1-13)M(1-13).

Compound | LETHAL CONCENTRATION Bsll + ME (B. subtilis Bsll) | LETHAL CONCENTRATION Bsll (B. subtilis Bsll) | LETHAL CONCENTRATION D21 (E. coli D21) | LETHAL CONCENTRATION OT97 (P. aeruginosa OT97) | LETHAL CONCENTRATION Staph (S. aureus Cowan I) | LETHAL CONCENTRATION Strep (S. pyogenes) | LETHAL CONCENTRATION SRC (Sheep Red Cells) | activity against Plasmodium falciparum (inhibition of reinvasion, Figure 1) [1]
CC[C@H](C)[C@H](NC(=O)CNC(=O)[C@@H](NC(=O)[C@H](CCCCN)NC(=O)[C@H](CCCCN)NC(=O)[C@H](Cc1ccccc1)NC(=O)[C@H](CC(C)C)NC(=O)[C@H](CCCCN)NC(=O)[C@H](Cc1c[nH]c2ccccc12)NC(=O)[C@@H](N)CCCCN)[C@@H](C)CC)C(=O)NCC(=O)N[C@@H](C)C(=O)N[C@H](C(=O)N[C@@H](CC(C)C)C(=O)N[C@@H](CCCCN)C(=O)N[C@H](C(=O)N[C@@H](CC(C)C)C(=O)N[C@H](C(=O)N[C@H](C(=O)NCC(=O)N[C@@H](CC(C)C)C(=O)N1CCC[C@H]1C(=O)N[C@@H](C)C(=O)N[C@@H](CC(C)C)C(=O)N[C@H](C(=O)N[C@@H](CO)C(N)=O)[C@@H](C)CC)[C@@H](C)O)[C@@H](C)O)C(C)C)C(C)C [CA(1-8)M(1-18)] | 0.5 µM | 0.4 µM | 0.3 µM | 0.7 µM | 1 µM | 2 µM | >600 µM | 
CC[C@H](C)[C@H](NC(=O)[C@H](CC(C)C)NC(=O)[C@H](C)NC(=O)[C@@H]1CCCN1C(=O)[C@H](CC(C)C)NC(=O)CNC(=O)[C@@H](NC(=O)[C@@H](NC(=O)[C@H](CC(C)C)NC(=O)[C@@H](NC(=O)[C@H](CCCCN)NC(=O)[C@H](CC(C)C)NC(=O)[C@@H](NC(=O)[C@H](C)NC(=O)CNC(=O)[C@@H](NC(=O)CNC(=O)[C@H](CCC(=O)O)NC(=O)[C@@H](NC(=O)[C@H](CCCCN)NC(=O)[C@H](CCCCN)NC(=O)[C@H](Cc1ccccc1)NC(=O)[C@H](CC(C)C)NC(=O)[C@H](CCCCN)NC(=O)[C@H](Cc1c[nH]c2ccccc12)NC(=O)[C@@H](N)CCCCN)[C@@H](C)CC)[C@@H](C)CC)C(C)C)C(C)C)[C@@H](C)O)[C@@H](C)O)C(N)=O [CA(1-9)M(1-17)] | 0.9 µM | 0.7 µM | 0.3 µM | 1 µM | 6 µM | 0.3 µM | >600 µM | 
H-KWKLFKKIEKVGQNIRDGIIKAGPAVAVVGQATQIAK-NH2 [CA(1-37), reference compound] | 200 µM | 4 µM | 0.2 µM | 2 µM | >200 µM | 4 µM | >200 µM | only negligible activity
H-KWKVFKKIEKMGRNIRNGIVKAGPAIAVLGEAKAL-NH2 [CB(1-35), reference compound] |  |  | 0.3 µM | 1 µM | >200 µM | 12 µM |  | about as potent as Mag
CC[C@H](C)[C@H](NC(=O)CN)C(=O)NCC(=O)N[C@@H](C)C(=O)N[C@H](C(=O)N[C@@H](CC(C)C)C(=O)N[C@@H](CCCCN)C(=O)N[C@H](C(=O)N[C@@H](CC(C)C)C(=O)N[C@H](C(=O)N[C@H](C(=O)NCC(=O)N[C@@H](CC(C)C)C(=O)N1CCC[C@H]1C(=O)N[C@@H](C)C(=O)N[C@@H](CC(C)C)C(=O)N[C@H](C(=O)N[C@@H](CO)C(=O)N[C@@H](Cc1c[nH]c2ccccc12)C(=O)N[C@H](C(=O)N[C@@H](CCCCN)C(=O)N[C@@H](CCCNC(=N)N)C(=O)N[C@@H](CCCCN)C(=O)N[C@@H](CCCNC(=N)N)C(=O)N[C@@H](CCC(N)=O)C(=O)N[C@@H](CCC(N)=O)C(N)=O)[C@@H](C)CC)[C@@H](C)CC)[C@@H](C)O)[C@@H](C)O)C(C)C)C(C)C [M(1-26), reference compound] | 0.3 µM | 0.2 µM | 0.8 µM | 3 µM | 0.2 µM | 0.5 µM | 4 to 8 µM | 
